Measured values reported in ChEMBL document CHEMBL1155519, “Discovery of N-phenyl-4-(thiazol-5-yl)pyrimidin-2-amine aurora kinase inhibitors” (J Med Chem, 2010).
Calls of active or inactive are those of the source. No cut-off for these calls is given here.

Experiments:
[1] = target: Cyclin-dependent kinase 2 (Homo sapiens, UniProt P24941)
[2] = target: Cyclin-dependent kinase 7 (Homo sapiens, UniProt P50613); assay: Inhibition of CDK7
Aurora kinase A = target: T1, Aurora kinase A (Homo sapiens, UniProt O14965); assay: Inhibition of human recombinant Aurora A after 30 mins
T1 sequence (O14965 whole entry): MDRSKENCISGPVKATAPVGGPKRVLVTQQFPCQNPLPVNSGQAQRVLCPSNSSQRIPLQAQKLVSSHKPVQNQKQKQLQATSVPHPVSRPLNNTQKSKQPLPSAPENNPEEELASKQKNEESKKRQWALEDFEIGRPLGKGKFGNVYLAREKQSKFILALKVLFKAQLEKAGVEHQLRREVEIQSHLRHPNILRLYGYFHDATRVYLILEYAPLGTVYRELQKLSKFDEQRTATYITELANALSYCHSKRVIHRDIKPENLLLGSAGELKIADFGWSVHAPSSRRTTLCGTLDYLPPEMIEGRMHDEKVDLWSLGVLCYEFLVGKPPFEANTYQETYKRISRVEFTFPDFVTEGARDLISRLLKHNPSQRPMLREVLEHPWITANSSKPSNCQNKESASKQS

[3] = target: Cyclin-dependent kinase 9 (Homo sapiens, UniProt P50750); assay: Inhibition of CDK9
Sequence of Cyclin-dependent kinase 9 (P50750 whole entry): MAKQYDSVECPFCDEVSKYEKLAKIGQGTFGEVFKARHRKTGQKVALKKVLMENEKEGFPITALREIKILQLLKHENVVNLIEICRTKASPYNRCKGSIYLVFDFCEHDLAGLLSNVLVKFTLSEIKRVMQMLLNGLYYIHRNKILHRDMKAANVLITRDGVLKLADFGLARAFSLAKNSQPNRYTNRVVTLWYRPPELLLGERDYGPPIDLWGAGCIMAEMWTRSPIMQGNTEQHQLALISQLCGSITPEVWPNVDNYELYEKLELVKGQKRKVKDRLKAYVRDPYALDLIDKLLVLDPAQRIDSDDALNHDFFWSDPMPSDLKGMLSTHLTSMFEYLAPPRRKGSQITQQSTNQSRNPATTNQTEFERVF

[4] = target: Cyclin-dependent kinase 4 (Homo sapiens, UniProt P11802); assay: Inhibition of CDK4
Sequence of Cyclin-dependent kinase 4 (P11802 whole entry): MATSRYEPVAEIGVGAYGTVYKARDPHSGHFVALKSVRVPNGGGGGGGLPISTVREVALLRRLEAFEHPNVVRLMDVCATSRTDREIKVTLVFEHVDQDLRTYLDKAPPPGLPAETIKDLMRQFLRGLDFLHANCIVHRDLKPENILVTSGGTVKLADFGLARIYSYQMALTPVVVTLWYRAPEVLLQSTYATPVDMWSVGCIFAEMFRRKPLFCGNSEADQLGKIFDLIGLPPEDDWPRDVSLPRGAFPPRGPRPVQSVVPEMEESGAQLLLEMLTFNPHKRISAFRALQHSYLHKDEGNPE

A2780 = assay: Cytotoxicity against human A2780 cells after 96 hrs by MTT assay; format: functional, cell-based; details: A2780, 96 h
MIA PaCa-2 = assay: Cytotoxicity against human MIAPaCa2 cells after 96 hrs by MTT assay; format: functional, cell-based; details: MIA PaCa-2, 96 h
Aurora kinase B = Aurora kinase B (Homo sapiens, UniProt Q96GD4); assay: Inhibition of human recombinant Aurora B after 60 mins
Sequence of Aurora kinase B (Q96GD4 whole entry): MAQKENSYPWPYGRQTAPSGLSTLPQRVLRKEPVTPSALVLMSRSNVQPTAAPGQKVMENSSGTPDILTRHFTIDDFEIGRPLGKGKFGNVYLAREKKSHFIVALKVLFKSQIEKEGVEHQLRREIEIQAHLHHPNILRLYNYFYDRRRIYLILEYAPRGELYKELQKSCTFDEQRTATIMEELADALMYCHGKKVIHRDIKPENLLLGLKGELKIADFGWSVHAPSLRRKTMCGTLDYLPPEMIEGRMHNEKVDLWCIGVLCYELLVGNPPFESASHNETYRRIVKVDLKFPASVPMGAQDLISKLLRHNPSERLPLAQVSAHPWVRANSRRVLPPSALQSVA

[5] = Inhibition of Aurora kinase in human A549 cells assessed as concentration required for half-maximal inhibition of histone H3 serine-10 phosphorylation after 7 hrs immunofluorescence microscopy; format: cell-based; details: A549, 7 h
[6] = target: Cyclin-dependent kinase 1 (Homo sapiens, UniProt P06493); assay: Inhibition of CDK1
Sequence of Cyclin-dependent kinase 1 (P06493 whole entry): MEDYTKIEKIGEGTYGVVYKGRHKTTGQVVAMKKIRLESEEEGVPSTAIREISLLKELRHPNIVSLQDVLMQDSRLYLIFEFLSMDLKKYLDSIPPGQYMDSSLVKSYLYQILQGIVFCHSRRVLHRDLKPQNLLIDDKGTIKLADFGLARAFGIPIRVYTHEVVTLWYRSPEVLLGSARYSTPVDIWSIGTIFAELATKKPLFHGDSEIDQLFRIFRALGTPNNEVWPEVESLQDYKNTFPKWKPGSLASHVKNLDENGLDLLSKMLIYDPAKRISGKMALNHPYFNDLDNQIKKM

U2OS [7] = assay: Inhibition of Aurora kinase in asynchronous human U2OS cells assessed as reduction of histone H3 serine-10 phosphorylation at 150 nM after 7 hrs immunofluorescence microscopy; format: cell-based
MCF7 = assay: Induction of p53 protein expression in human MCF7 cells at 0.07 to 10 uM after 7 hrs by fluorescent microscopy; format: functional, cell-based
U2OS [8] = assay: Inhibition of Aurora kinase in nocodazole-synchronized human U2OS cells assessed as reduction of histone H3 serine-10 phosphorylation at 0.07 to 10 uM after 2 hrs immunofluorescence microscopy; format: cell-based

Sequence of Cyclin-dependent kinase 7 (P50613 whole entry): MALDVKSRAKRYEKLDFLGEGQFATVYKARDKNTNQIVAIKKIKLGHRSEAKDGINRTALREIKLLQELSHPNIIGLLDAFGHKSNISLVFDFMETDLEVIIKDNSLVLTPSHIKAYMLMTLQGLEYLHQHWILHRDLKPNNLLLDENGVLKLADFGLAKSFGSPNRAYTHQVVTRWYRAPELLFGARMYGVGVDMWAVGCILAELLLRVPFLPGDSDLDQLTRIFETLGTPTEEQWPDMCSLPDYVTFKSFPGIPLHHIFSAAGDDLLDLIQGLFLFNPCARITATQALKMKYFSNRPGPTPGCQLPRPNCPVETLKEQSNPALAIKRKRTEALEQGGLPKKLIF

Ki [1]	Ki [2]	Ki (Aurora kinase A)	Ki [3]	Ki [4]	Ki (Aurora kinase B)	IC50 [5]	Ki [6]	SMILES	IC50 (A2780)	IC50 (MIA PaCa-2)	Activity (U2OS [7])	Activity (MCF7)	inhibition (U2OS [8])
32 nM	171 nM	5 nM	9 nM	38 nM	4 nM	760 nM	240 nM	CCNc1nc(C)c(-c2ccnc(Nc3ccc(CNC(C)=O)cc3)n2)s1	81 nM	230 nM			
463 nM	1390 nM	3 nM	564 nM	> 10000 nM	6 nM	1880 nM	1220 nM	CCNc1nc(C)c(-c2ccnc(Nc3cc(OC)c(OC)c(OC)c3)n2)s1	389 nM	994 nM	inactive	inactive	Active
156 nM	> 10000 nM	19 nM	2610 nM	943 nM	9.4 nM	3700 nM	3930 nM	CNc1nc(C)c(-c2ccnc(Nc3ccc(N4CCOCC4)cc3)n2)s1	144 nM	273 nM	inactive	inactive	Active
432 nM	2800 nM	8.2 nM	1150 nM	929 nM	13 nM	360 nM	1890 nM	CC(=O)N1CCN(c2ccc(Nc3nccc(-c4sc(C)nc4C)n3)cc2)CC1	303 nM	604 nM			
297 nM	1080 nM	12 nM	448 nM	22 nM	9.7 nM		851 nM	CNc1nc(C)c(-c2ccnc(Nc3ccc(N4CCN(C(C)=O)CC4)cc3)n2)s1	221 nM	622 nM			
522 nM	2150 nM	7.6 nM	264 nM	1250 nM	3.8 nM	590 nM	> 10000 nM	CC(=O)N1CCN(c2ccc(Nc3nccc(-c4sc(N)nc4C)n3)cc2)CC1	240 nM	493 nM			

SMILES	Ki [1]	Ki [2]	Ki (Aurora kinase A)	Ki [3]	Ki [4]	Ki (Aurora kinase B)	IC50 [5]	Ki [6]	IC50 (A2780)	IC50 (MIA PaCa-2)	Activity (U2OS [7])	Activity (MCF7)	inhibition (U2OS [8])
Cc1nc(C)c(-c2ccnc(Nc3ccc(N)cc3)n2)s1	168 nM	2560 nM	31 nM	337 nM	807 nM		940 nM	769 nM	584 nM	1230 nM	Active	inactive	Active
